Several values for one entry are separate records, joined by “and”; a condition that tells them apart may be missing. Identical values can stand only once. Marks after values point to notes of the source that are not given here. Ends that are not written are not given here.
B1: MBP-tagged split mFAP fragment m14 (β-strands 1-4 of mFAP2a) (designed binder, not shown: large carriers)
chain: SRAAQLLPGTWQATFTNEDGQTSQGQWHFQPRSPYTMDIVAQGTISDGRPIVGYGKATVKTP
B2: MBP-tagged split mFAP fragment m38 (β-strands 3-8 of mFAP2a) (designed binder, not shown: large carriers)
chain: YTMDIVAQGTISDGRPIVGYGKATVKTPDTLDIDITYPSLGNIKAQGQITMDSPTQFKWDATTKGENDFHGRLTGTLQRQE
B3: MBP-tagged split mFAP fragment m48 (β-strands 4-8 of mFAP2a) (designed binder, not shown: large carriers)
chain: DGRPIVGYGKATVKTPDTLDIDITYPSLGNIKAQGQITMDSPTQFKWDATTKGENDFHGRLTGTLQRQE
B5: MBP-tagged split mFAP fragment m13 (β-strands 1-3 of mFAP2a) (designed binder, not shown: large carriers)
chain: SRAAQLLPGTWQATFTNEDGQTSQGQWHFQPRSPYTMDIVAQGTIS
modifications: also: MBP-tagged (side and linker not given here)
B6: MBP-tagged split mFAP fragment m12 (β-strands 1-2 of mFAP2a) (designed binder, not shown: large carriers)
chain: SRAAQLLPGTWQATFTNEDGQTSQGQWHFQPRSP
modifications: also: MBP-tagged (side and linker not given here)
B7: MBP-tagged split mFAP fragment m58 (β-strands 5-8 of mFAP2a) (designed binder, not shown: large carriers)
chain: DTLDIDITYPSLGNIKAQGQITMDSPTQFKWDATTKGENDFHGRLTGTLQRQE
modifications: also: MBP-tagged (side and linker not given here)

What was measured:
[1] = cited from earlier work; for Extinction Coefficient / Reported Quantum Yield / λabs, peak absorbance wavelength / λem, peak emission wavelength / λex, peak excitation wavelength: previously reported value
[2] = molecular target: B7; test: split mFAP self-complementation, MBP-tagged fragments mixed equimolar with excess DFHBI-1T, fluorescence endpoint (n=3)
Method: (§1) To measure fluorescence intensities in complementation assays (FIG. 1b), fluorescence was measured on a Synergy Neo2 hybrid multi-mode reader (BioTek) in flat bottom, black polystyrene, non-binding surface 96-well half-area microplates (Corning 3686). Each split mFAP fragment covalently fused to maltose binding protein (MBP) was purified by large-scale protein purification in high salt Tev cleavage buffer⁹. In technical triplicate, 12.0 μL of each MBP-tagged split mFAP fragment was mixed to an equimolar concentration supplemented with 1.00 μL of 1.25 mM DFHBI-1T (Lucerna) at 25.0 μL final volumes per well. Fluorescence endpoints were measured using excitation wavelength λₑₓ=478 nm and emission wavelength λₑₘ=520 nm. In technical triplicate, background fluorescence endpoints of wells with identical chromophore concentrations lacking protein (substituted for equivalent volumes of high salt Tev cleavage buffer) were measured, and the mean fluorescence endpoints were subtracted from the mean fluorescence endpoints of samples containing protein (FIG. 1b).

[3] = molecular target: T1, MBP-tagged split mFAP fragment m17 (β-strands 1-7 of mFAP2a); test: fluorescence complementation titration: MBP-tagged m8 titrated into fixed MBP-tagged m17 in 25.0 µM DFHBI-1T; signal did not plateau, Kd is at least the highest titrant concentration
T1 chain: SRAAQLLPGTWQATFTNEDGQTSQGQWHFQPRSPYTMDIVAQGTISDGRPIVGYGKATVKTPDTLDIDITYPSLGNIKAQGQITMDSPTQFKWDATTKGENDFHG
Method: (§2) Split mFAP fragment affinities (FIG. 1d,e,f,g) were estimated by preparing MBP-tagged split mFAP fragments by large-scale protein purification in high salt Tev cleavage buffer⁹, with 25.0 μM DFHBI-1T final concentration at 28.0 μL final volumes per well in flat bottom, black polystyrene, non-binding surface 96-well half-area microplates (Corning 3686). 3.00 μL of either 132 μM m12, 122 μM m14, 101 μM m16, or 84.9 μM m17 in high salt Tev cleavage buffer was mixed with 3.00 μL of 150 μM DFHBI-1T in high salt Tev cleavage buffer. For each split mFAP fragment, 12.0 μL of the complementary split mFAP fragment in high salt Tev cleavage buffer (the titrant) was mixed in from eleven serial dilutions (\sqrt{10} dilution factor) starting from 422 μM m38, 33.0 μM m58, 348 μM m78, or 531 μM m8 stock solutions, respectively, including a twelfth condition without titrant. Fluorescence endpoints were measured on a Synergy Neo2 hybrid multi-mode reader (BioTek) using excitation wavelength λₑₓ=468 nm and emission wavelength λₑₘ=530 nm. For each titration, the fluorescence intensity of the condition without titrant was subtracted from the fluorescence intensities of samples containing titrant, then the background subtracted data was normalized from 0 to 1. […]

[4] = molecular target: B6; test: β-barrel self-complementation assay, equimolar MBP-tagged fragments in excess DFHBI-1T
Method: as §1

[5] = molecular target: B6; test: β-barrel self-complementation assay, equimolar MBP-tagged fragments in excess DFHBI-1T; reference is m1 with m28
Method: as §1

[6] = molecular target: B6; test: fluorescence complementation titration: MBP-tagged m38 titrated into fixed MBP-tagged m12 in 25.0 µM DFHBI-1T; signal did not plateau, Kd is at least the highest titrant concentration
Method: as §2

[7] = molecular target: T2, MBP-tagged split mFAP fragment m15 (β-strands 1-5 of mFAP2a); test: β-barrel self-complementation assay (fluorescence of DFHBI-1T)
T2 chain: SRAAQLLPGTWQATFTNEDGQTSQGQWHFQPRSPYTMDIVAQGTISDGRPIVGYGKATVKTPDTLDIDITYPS
Method: as §1

[8] = molecular target: B5; test: as above
Method: as §1

[9] = cpmFAP fluorescence intensity assay; assay type: biochemical; conditions: equimolar concentration, excess DFHBI-1T
Method: To measure the fluorescence intensities of cpmFAPs (FIG. 4b,d), fluorescence endpoints were measured on a Synergy Neo2™ hybrid multi-mode reader (BioTek) in flat bottom, black polystyrene, non-binding surface 96-well microplates (Corning 3650) or half-area microplates (Corning 3686). […]

[10] = molecular target: B3; test: split mFAP self-complementation, MBP-tagged fragments mixed equimolar with excess DFHBI-1T, fluorescence endpoint (n=3)
Method: as §1

[11] = molecular target: B2; test: as above
Method: as §1

[12] = molecular target: B1; test: fluorescence complementation titration: MBP-tagged m58 titrated into fixed MBP-tagged m14 in 25.0 µM DFHBI-1T; signal did not plateau, Kd is at least the highest titrant concentration
Method: as §2

[13] = molecular target: T3, MBP-tagged split mFAP fragment m16 (β-strands 1-6 of mFAP2a); test: fluorescence complementation titration: MBP-tagged m78 titrated into fixed MBP-tagged m16 in 25.0 µM DFHBI-1T; signal did not plateau, Kd is at least the highest titrant concentration
T3 chain: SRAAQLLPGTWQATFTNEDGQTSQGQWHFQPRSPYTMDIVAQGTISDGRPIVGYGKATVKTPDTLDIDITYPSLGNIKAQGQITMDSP
Method: as §2

## CC1=NC(=Cc2cc(F)c(O)c(F)c2)C(=O)N1C [DFHBI, 3,5-difluoro-4-hydroxybenzylidene imidazolinone]
[1]; marked previously reported value
  Absolute Quantum Yield: 0.001^#
[1]
  Extinction Coefficient: 30,100^¶ M^−1, cm^−1 and 31,935^# M^−1, cm^−1
  Reported Quantum Yield: 0.0007^¶
  λabs, peak absorbance wavelength: 418^¶ nm
  λem, peak emission wavelength: 489^¶ nm
  λex, peak excitation wavelength: 423^¶ nm

## CC1=N/C(=C\c2cc(F)c(O)c(F)c2)C(=O)N1CC(F)(F)F [DFHBI-1T, (Z)-4-(3,5-difluoro-4-hydroxybenzylidene)-2-methyl-1-(2,2,2-trifluoroethyl)-1H-imidazol-5(4H)-one]
[1]
  Extinction Coefficient: 35,400^¶ M^−1, cm^−1
  Reported Quantum Yield: 0.00098^¶
  λabs, peak absorbance wavelength: 422^¶ nm
  λem, peak emission wavelength: 495^¶ nm
  λex, peak excitation wavelength: 426^¶ nm

## Cc1cc2cc3cc(C)c(N)cc3nc2cc1N.Cl [Acridine Yellow G]
[1]; in methanol
  quantum yield value of reference dye: 0.57

## B1
[2]
  binding result: binds

## RLTGTLQRQE (designed binder, not shown: large carriers, also: MBP tag fused, side and linker not given here) [MBP-tagged split mFAP fragment m8 (β-strand 8 of mFAP2a)]
[3]
  Kd: ≥ 354 µM

## B2
[4]
  mean fluorescence intensity over mean background fluorescence intensity (fold): 7.34 fold
[5]
  background-subtracted mean fluorescence intensity relative to the m1 and m28 combination (fold): 184 fold
[6]
  Kd: ≥ 281 µM

## LGNIKAQGQITMDSPTQFKWDATTKGENDFHGRLTGTLQRQE (designed binder, not shown: large carriers, also: MBP tag fused, side and linker not given here) [MBP-tagged split mFAP fragment m68 (β-strands 6-8 of mFAP2a)]
[7]
  binding result: binds

## B3
[8]
  binding result: binds

B4: cp35-34_mFAP2a_12: circularly permuted mFAP, SEQ ID NO: 341; brightest cpmFAP tested (protein)
chain: QEMDIVAQGTISDGRPIVGYGKATVKTPDTLDIDITYPSLGNIKAQGQITMDSPTQFKWDATTKGENDFHGRLTGTLQRTEEAKEATEEARRRGITTQAAQLLPGTWQATFTNEDGQTSQGQWHFQPRDG
[9]
  fluorescence intensity relative to mFAP2a: ~93%

## B5
[10]
  binding result: binds

## B6
[11]
  binding result: binds

## B7
[12]
  Kd: ≥ 22 µM

## TQFKWDATTKGENDFHGRLTGTLQRQE (designed binder, not shown: large carriers, also: MBP tag fused, side and linker not given here) [MBP-tagged split mFAP fragment m78 (β-strands 7-8 of mFAP2a)]
[13]
  Kd: ≥ 232 µM

From patent US20230065495A1, “MULTIPARTITE AND CIRCULARLY PERMUTED BETA-BARREL POLYPEPTIDES AND METHODS FOR THEIR USE” (University of Washington, priority 2020, published 2023)
